{"source": "patent US10612035B2", "about": "“EPSPS mutants” (priority 2006, dated 2020)", "key": {"[1]": {"tested_on": "Canola plants regenerated that contain the P178A mutant", "conditions": "applied at commercial rates; canola with P178A EPSPS mutant", "source_text": "The following genoplast (recombinagenic oligonucleobase) was made to make a P178A change in Brassica napus (canola) germplasm:\n(§1) wherein V is a fluorescent dye (V=Cy3) and H is a reverse nucleotide or reverse base (H=3′DMTdCCPG). The underlined nucelobases represent the heterologous region (codon) where the mutation occurs in the canola genome, ie, A. The genoplast is made according to well known techniques and the genoplast is preferably delivered into a canola plant cell via microparticle bombardment, ie, biolistics."}, "[2]": {"tested_on": "Rice plants regenerated that contain the P173A mutant", "conditions": "applied at commercial rates; rice with P173A EPSPS mutant", "source_text": "The following genoplast (recombinagenic oligonucleobase) was made to make a P173A change in Oryza sativa (rice) germplasm:\nas §1, with “nucleobases” for “nucelobases”, “rice” for “canola”"}, "[3]": {"tested_on": "EPSPS mutations in E coli (Area) and Arabidopsis NM 130093", "conditions": "mutations 1-9 of the table", "description": "To identify mutant EPSPS genes that will produce a gene product that provides resistance to glyphosate, in vitro screening can be done in a bacterial system to save time and resources. Growth curves of bacterial colonies expressing candidate mutant EPSPS genes can be generated to evaluate the mutant EPSPS genes in providing a glyphosate resistant phenotype. […] In another embodiment of the present invention, the E coli EPSPS gene, also called the AroA gene, can be used to evaluate EPSPS mutants for glyphosate resistance. Growth curve assays and enzymatic assays measuring Ki and Km values for candidate mutants are conducted according to well known assay techniques."}, "[4]": {"molecular_target": "wild-type EPSPS from E. coli (Escherichia coli, UniProt P0A6D3)", "sequence (P0A6D3 whole entry)": "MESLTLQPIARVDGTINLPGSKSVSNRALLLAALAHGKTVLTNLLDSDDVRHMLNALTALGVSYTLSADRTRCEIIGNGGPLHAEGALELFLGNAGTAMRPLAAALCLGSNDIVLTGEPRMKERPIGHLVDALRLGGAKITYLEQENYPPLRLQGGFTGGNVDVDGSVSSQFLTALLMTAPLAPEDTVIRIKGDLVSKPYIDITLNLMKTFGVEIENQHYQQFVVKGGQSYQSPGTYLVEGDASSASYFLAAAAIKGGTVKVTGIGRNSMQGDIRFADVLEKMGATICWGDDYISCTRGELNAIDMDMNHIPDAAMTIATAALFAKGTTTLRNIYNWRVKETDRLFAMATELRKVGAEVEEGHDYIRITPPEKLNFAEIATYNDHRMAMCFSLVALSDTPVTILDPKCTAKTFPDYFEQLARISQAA", "conditions": "read-out: apparent Km for PEP; cited from earlier work"}}}
{"smiles": "O=C(O)CNCP(=O)(O)O", "note": "[glyphosate, N-phosphonomethylglycine]", "values": [{"measurement": "resistance of plants to glyphosate", "setting": "[1]", "result": "resistant"}, {"measurement": "resistance of plants to glyphosate", "setting": "[2]", "result": "resistant"}, {"measurement": "glyphosate resistant phenotype", "setting": "[3]", "result": "resistant"}]}
{"smiles": "C=C(OP(=O)(O)O)C(=O)O", "note": "[PEP, phosphoenolpyruvic acid]", "values": [{"measurement": "Km", "setting": "[4]", "result": 10, "unit": "µM"}]}
